Results reported in ChEMBL document CHEMBL1201862, “PubChem BioAssay data set” (2004).
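Values below derive from 48-hour exposures of cells grown in 96-well plates, with endpoints linearly interpolated between the two concentrations bracketing the appropriate inhibition level. At the GI50, growth is halved.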 Calls of active or inactive are those of the source. No stated cut-off is given here; in the data, active = GI50 up to about 1.1 µM and inactive = higher.

What was measured:
Assay in all cases: DTP human tumour cell line panel, 48 h
786-0 = tested on: 786-0
A498 = tested on: A498
A549 = tested on: A549
ACHN = tested on: ACHN
CAKI-1 = tested on: CAKI-1
CCRF-CEM = tested on: CCRF-CEM
COLO 205 = tested on: COLO 205
DLD-1 = tested on: DLD-1
DMS-114 = tested on: DMS-114
DMS-273 = tested on: DMS-273
EKVX = tested on: EKVX
HCC 2998 = tested on: HCC 2998
HCT-116 = tested on: HCT-116
HCT-15 = tested on: HCT-15
HL-60 = tested on: HL-60
HOP-18 = tested on: HOP-18
HOP-62 = tested on: HOP-62
HOP-92 = tested on: HOP-92
HT-29 = tested on: HT-29
IGROV-1 = tested on: IGROV-1
K562 = tested on: K562
KM-20L2 = tested on: KM-20L2
KM12 = tested on: KM12
LXFL 529 = tested on: LXFL 529
M14 = tested on: M14
M19-MEL = tested on: M19-MEL
MOLT-4 = tested on: MOLT-4
Malme-3M = tested on: Malme-3M
NCI-H226 = tested on: NCI-H226
NCI-H23 = tested on: NCI-H23
NCI-H460 = tested on: NCI-H460
NCI-H522 = tested on: NCI-H522
OVCAR-3 = tested on: OVCAR-3
OVCAR-4 = tested on: OVCAR-4
OVCAR-5 = tested on: OVCAR-5
OVCAR-8 = tested on: OVCAR-8
RPMI-8226 = tested on: RPMI-8226
RXF 631 = tested on: RXF 631
SF-268 = tested on: SF-268
SF-295 = tested on: SF-295
SF-539 = tested on: SF-539
SK-MEL-28 = tested on: SK-MEL-28
SK-MEL-5 = tested on: SK-MEL-5
SK-OV-3 = tested on: SK-OV-3
SN12C = tested on: SN12C
SNB-19 = tested on: SNB-19
SNB-75 = tested on: SNB-75
SNB-78 = tested on: SNB-78
SW-620 = tested on: SW-620
TK-10 = tested on: TK-10
U-251 = tested on: U-251
UACC-257 = tested on: UACC-257
UACC-62 = tested on: UACC-62
UO-31 = tested on: UO-31
RXF 393 = tested on: RXF 393
SK-MEL-2 = tested on: SK-MEL-2
SR = tested on: SR

CC(=O)c1ccc(OCC(O)CO)cc1 (stereo not drawn)
GI50 (786-0): 25.6 µM (inactive) | GI50 (A498): > 100 µM (inactive) | GI50 (A549): 94.2 µM (inactive) | GI50 (ACHN): > 100 µM (inactive) | GI50 (CAKI-1): > 100 µM (inactive) | GI50 (CCRF-CEM): > 100 µM (inactive) | GI50 (COLO 205): 35.6 µM (inactive) | GI50 (DLD-1): 45.8 µM (inactive) | GI50 (DMS-114): 47 µM (inactive) | GI50 (DMS-273): > 100 µM (inactive) | GI50 (EKVX): > 100 µM (inactive) | GI50 (HCC 2998): > 100 µM (inactive) | GI50 (HCT-116): 17.3 µM (inactive) | GI50 (HCT-15): > 100 µM | GI50 (HL-60): > 100 µM (inactive) | GI50 (HOP-18): > 100 µM (inactive) | GI50 (HOP-62): > 100 µM (inactive) | GI50 (HOP-92): > 100 µM (inactive) | GI50 (HT-29): 61.4 µM (inactive) | GI50 (IGROV-1): > 100 µM (inactive) | GI50 (K562): 61.9 µM (inactive) | GI50 (KM-20L2): > 100 µM (inactive) | GI50 (KM12): > 100 µM (inactive) | GI50 (LXFL 529): 51.8 µM (inactive) | GI50 (M14): > 100 µM (inactive) | GI50 (M19-MEL): > 100 µM (inactive) | GI50 (MOLT-4): > 100 µM (inactive) | GI50 (Malme-3M): > 100 µM (inactive) | GI50 (NCI-H226): > 100 µM (inactive) | GI50 (NCI-H23): > 100 µM (inactive) | GI50 (NCI-H460): > 100 µM (inactive) | GI50 (NCI-H522): > 100 µM (inactive) | GI50 (OVCAR-3): > 100 µM (inactive) | GI50 (OVCAR-4): > 100 µM (inactive) | GI50 (OVCAR-5): > 100 µM (inactive) | GI50 (OVCAR-8): > 100 µM (inactive) | GI50 (RPMI-8226): 62.7 µM (inactive) | GI50 (RXF 631): > 100 µM (inactive) | GI50 (SF-268): > 100 µM (inactive) | GI50 (SF-295): > 100 µM (inactive) | GI50 (SF-539): > 100 µM (inactive) | GI50 (SK-MEL-28): > 100 µM (inactive) | GI50 (SK-MEL-5): > 100 µM (inactive) | GI50 (SK-OV-3): > 100 µM (inactive) | GI50 (SN12C): > 100 µM (inactive) | GI50 (SNB-19): > 100 µM (inactive) | GI50 (SNB-75): > 100 µM (inactive) | GI50 (SNB-78): > 100 µM (inactive) | GI50 (SW-620): 14.9 µM (inactive) | GI50 (TK-10): > 100 µM (inactive) | GI50 (U-251): 49.8 µM (inactive) | GI50 (UACC-257): > 100 µM (inactive) | GI50 (UACC-62): > 100 µM (inactive) | GI50 (UO-31): > 100 µM (inactive)

Cc1ccc(C2=NN(C)COC2C(F)(F)F)cc1 (stereo not drawn)
GI50 (786-0): > 100 µM (inactive) | GI50 (A549): > 100 µM (inactive) | GI50 (ACHN): > 100 µM (inactive) | GI50 (CAKI-1): > 100 µM (inactive) | GI50 (CCRF-CEM): > 100 µM (inactive) | GI50 (COLO 205): > 100 µM (inactive) | GI50 (DLD-1): > 100 µM (inactive) | GI50 (DMS-114): > 100 µM (inactive) | GI50 (DMS-273): > 100 µM (inactive) | GI50 (EKVX): > 100 µM (inactive) | GI50 (HCC 2998): > 100 µM (inactive) | GI50 (HCT-116): > 100 µM (inactive) | GI50 (HCT-15): > 100 µM | GI50 (HL-60): > 100 µM (inactive) | GI50 (HOP-18): > 100 µM (inactive) | GI50 (HOP-62): > 100 µM (inactive) | GI50 (HOP-92): > 100 µM (inactive) | GI50 (HT-29): > 100 µM (inactive) | GI50 (IGROV-1): > 100 µM (inactive) | GI50 (K562): > 100 µM (inactive) | GI50 (KM-20L2): > 100 µM (inactive) | GI50 (KM12): > 100 µM (inactive) | GI50 (LXFL 529): > 100 µM (inactive) | GI50 (M14): > 100 µM (inactive) | GI50 (M19-MEL): > 100 µM (inactive) | GI50 (MOLT-4): > 100 µM (inactive) | GI50 (Malme-3M): > 100 µM (inactive) | GI50 (NCI-H226): > 100 µM (inactive) | GI50 (NCI-H23): > 100 µM (inactive) | GI50 (NCI-H460): > 100 µM (inactive) | GI50 (NCI-H522): > 100 µM (inactive) | GI50 (OVCAR-3): > 100 µM (inactive) | GI50 (OVCAR-4): > 100 µM (inactive) | GI50 (OVCAR-5): > 100 µM (inactive) | GI50 (OVCAR-8): > 100 µM (inactive) | GI50 (RPMI-8226): > 100 µM (inactive) | GI50 (RXF 393): > 100 µM (inactive) | GI50 (RXF 631): > 100 µM (inactive) | GI50 (SF-268): > 100 µM (inactive) | GI50 (SF-295): > 100 µM (inactive) | GI50 (SF-539): > 100 µM (inactive) | GI50 (SK-MEL-28): > 100 µM (inactive) | GI50 (SK-MEL-2): > 100 µM (inactive) | GI50 (SK-MEL-5): > 100 µM (inactive) | GI50 (SK-OV-3): > 100 µM (inactive) | GI50 (SN12C): > 100 µM (inactive) | GI50 (SNB-19): > 100 µM (inactive) | GI50 (SNB-75): 21.2 µM (inactive) | GI50 (SNB-78): > 100 µM (inactive) | GI50 (SR): > 100 µM (inactive) | GI50 (SW-620): > 100 µM (inactive) | GI50 (U-251): > 100 µM (inactive) | GI50 (UACC-257): > 100 µM (inactive) | GI50 (UACC-62): 18.6 µM (inactive) | GI50 (UO-31): > 100 µM (inactive)

C=CCc1cc(OC)c2c(c1)C(O)CC(c1ccccc1)O2 (stereo not drawn)
GI50 (786-0): > 100 µM (inactive) | GI50 (A549): > 100 µM (inactive) | GI50 (ACHN): > 100 µM (inactive) | GI50 (CAKI-1): 62.7 µM (inactive) | GI50 (CCRF-CEM): > 100 µM (inactive) | GI50 (COLO 205): > 100 µM (inactive) | GI50 (DLD-1): > 100 µM (inactive) | GI50 (DMS-114): > 100 µM (inactive) | GI50 (DMS-273): > 100 µM (inactive) | GI50 (EKVX): > 100 µM (inactive) | GI50 (HCC 2998): > 100 µM (inactive) | GI50 (HCT-116): > 100 µM (inactive) | GI50 (HCT-15): 96.6 µM | GI50 (HL-60): 35.6 µM (inactive) | GI50 (HOP-18): > 100 µM (inactive) | GI50 (HOP-62): > 100 µM (inactive) | GI50 (HOP-92): > 100 µM (inactive) | GI50 (HT-29): 60.1 µM (inactive) | GI50 (IGROV-1): > 100 µM (inactive) | GI50 (K562): 23.6 µM (inactive) | GI50 (KM-20L2): 78.3 µM (inactive) | GI50 (KM12): > 100 µM (inactive) | GI50 (LXFL 529): > 100 µM (inactive) | GI50 (M14): > 100 µM (inactive) | GI50 (M19-MEL): > 100 µM (inactive) | GI50 (MOLT-4): 27.9 µM (inactive) | GI50 (Malme-3M): > 100 µM (inactive) | GI50 (NCI-H226): > 100 µM (inactive) | GI50 (NCI-H23): > 100 µM (inactive) | GI50 (NCI-H460): > 100 µM (inactive) | GI50 (NCI-H522): > 100 µM (inactive) | GI50 (OVCAR-3): > 100 µM (inactive) | GI50 (OVCAR-4): > 100 µM (inactive) | GI50 (OVCAR-5): 78.5 µM (inactive) | GI50 (OVCAR-8): > 100 µM (inactive) | GI50 (RXF 631): > 100 µM (inactive) | GI50 (SF-268): > 100 µM (inactive) | GI50 (SF-295): > 100 µM (inactive) | GI50 (SF-539): > 100 µM (inactive) | GI50 (SK-MEL-28): > 100 µM (inactive) | GI50 (SK-MEL-2): > 100 µM (inactive) | GI50 (SK-MEL-5): > 100 µM (inactive) | GI50 (SK-OV-3): > 100 µM (inactive) | GI50 (SN12C): > 100 µM (inactive) | GI50 (SNB-19): > 100 µM (inactive) | GI50 (SNB-75): > 100 µM (inactive) | GI50 (SNB-78): > 100 µM (inactive) | GI50 (SR): > 100 µM (inactive) | GI50 (SW-620): > 100 µM (inactive) | GI50 (TK-10): > 100 µM (inactive) | GI50 (U-251): > 100 µM (inactive) | GI50 (UACC-257): > 100 µM (inactive) | GI50 (UACC-62): > 100 µM (inactive) | GI50 (UO-31): > 100 µM (inactive)
